Reference: patent publication US5132111A (priority 1990, dated 1992)
Non-standard residues stand in square brackets, D forms with d. Residues, ends and D or L forms follow the SMILES beside them. Nle = CCCC[C@H](N)C(=O)O

Assays:
[1] = test system: CRF Target Cells (anterior pituitary cells); type: cell-based, rat
[2] = test system: gonadotropes (anterior pituitary cells); type: cell-based, rat
[3] = test system: secretion of ACTH and β-END-LI

Compound | ACTH secretion in response to CRF 3 days following pretreatment [1] [times the basal rate] | ACTH-secretory response to subsequent CRF after pretreatment [1] | decrease of ACTH content [1] [%] | LH-secretory response to GnRH after pretreatment [2] | effect on LH content [2] | secretion of ACTH (inhibition) [3] | secretion of β-END-LI (inhibition) [3]
H-Ser-Gln-Glu-Pro-Pro-Ile-Ser-Leu-Asp-Leu-Thr-Phe-His -Leu-Leu-Arg-Glu-Val-Leu-Glu-Met-Thr-Lys-Ala-Asp-Gln -Leu-Ala-Gln-Gln-Ala-His-Ser-Asn-Arg-Lys-Leu-Leu-Asp-Ile-Ala-NH2 [CRF] | 3.7 | does not eliminate the ability of the cells to respond | 40 | no effect | neither CRF nor the cytotoxic conjugate has any significant effect on LH content |  | 
CCCC[C@H](NC(=O)[C@H](CCC(=O)O)NC(=O)[C@H](CC(C)C)NC(=O)[C@H](CCCC)NC(=O)[C@H](CCC(=O)O)NC(=O)[C@H](CCCNC(=N)N)NC(=O)[C@H](CC(C)C)NC(=O)[C@H](CC(C)C)NC(=O)[C@H](Cc1c[nH]cn1)NC(=O)[C@H](Cc1ccccc1)NC(=O)[C@@H](NC(=O)[C@@H](N)CC(C)C)[C@@H](C)O)C(=O)N[C@@H](C)C(=O)N[C@@H](CCCNC(=N)N)C(=O)N[C@@H](C)C(=O)N[C@@H](CCC(=O)O)C(=O)N[C@@H](CCC(N)=O)C(=O)N[C@@H](CCC(=O)O)C(=O)N[C@@H](C)C(=O)N[C@@H](CCC(=O)O)C(=O)N[C@@H](CCC(N)=O)C(=O)N[C@@H](C)C(=O)N[C@@H](C)C(=O)N[C@@H](CC(C)C)C(=O)N[C@@H](CC(N)=O)C(=O)N[C@@H](CCCNC(=N)N)C(=O)N[C@@H](CC(C)C)C(=O)N[C@@H](CC(C)C)C(=O)N[C@@H](CC(C)C)C(=O)N[C@@H](CCC(=O)O)C(=O)N[C@@H](CCC(=O)O)C(=O)N[C@@H](C)C(N)=O [[Nle^18,21]-AAHC(10-41)] (H-LTFHLLRE[Nle]LE[Nle]ARAEQEAEQAALNRLLLEEA-NH2) |  |  |  |  |  | inhibits | inhibits
H-Asp-CML-Thr-Leu-Glu -CML-CML-Arg-Glu-Met-CML-Glu-Met-CMA-Arg-Ala-Glu-Gln-CML -Ala-Glu-Gln-Ala-CMA-CML-Asn-Arg-Leu-CML-Leu-Glu-Glu-CMA-NH2 |  |  |  |  |  | inhibits | inhibits
CCCC[C@H](NC(=O)[C@H](CCC(=O)O)NC(=O)[C@H](CC(C)C)NC(=O)[C@H](CCCC)NC(=O)[C@H](CCC(=O)O)NC(=O)[C@H](CCCNC(=N)N)NC(=O)[C@H](CC(C)C)NC(=O)[C@H](CC(C)C)NC(=O)[C@H](Cc1c[nH]cn1)NC(=O)[C@H](Cc1ccccc1)NC(=O)[C@@H](NC(=O)[C@H](CC(C)C)NC(=O)[C@@H](N)CC(=O)O)[C@@H](C)O)C(=O)N[C@@H](C)C(=O)N[C@@H](CCCNC(=N)N)C(=O)N[C@@H](C)C(=O)N[C@@H](CCC(=O)O)C(=O)N[C@@H](CCC(N)=O)C(=O)N[C@@H](CCC(=O)O)C(=O)N[C@@H](C)C(=O)N[C@@H](CCC(=O)O)C(=O)N[C@@H](CCC(N)=O)C(=O)N[C@@H](C)C(=O)N[C@@H](C)C(=O)N[C@@H](CC(C)C)C(=O)N[C@@H](CC(N)=O)C(=O)N[C@@H](CCCNC(=N)N)C(=O)N[C@@H](CC(C)C)C(=O)N[C@@H](CC(C)C)C(=O)N[C@@H](CC(C)C)C(=O)N[C@@H](CCC(=O)O)C(=O)N[C@@H](CCC(=O)O)C(=O)N[C@@H](C)C(N)=O [[Nle^18,21]-AAHC(9-41)] (H-DLTFHLLRE[Nle]LE[Nle]ARAEQEAEQAALNRLLLEEA-NH2) |  |  |  |  |  | inhibits | inhibits
